The values that follow come from US20050191344A1, “Liposome composition for delivery of therapeutic agents” (priority 2004, published 2005).

A short description of data set [1]: Zeta potential of liposomes as a function of pH. The following applies: FIG. 2. The data set is classed as physicochemical. From the text: As discussed in Example 5, zeta potential measurements were obtained for the liposomes containing DSPEI and for the liposomes containing HDSG. […] This is likely indicative of a higher pKa and greater charge at physiological pH. […] The greater neutrality of DSPEI-containing liposomes is important for minimization of non-specific interactions with plasma proteins and cells under in vivo conditions and thus prolonged circulation in the blood, which is necessary for systemic drug and gene delivery, as well as delivery of gene modulators, to diseased tissues.
With continuing reference to FIG. 2, zeta potential measurements were also determined for liposomes prepared using dimethyldioctadecylammonium bromide (DDAB) (diamonds). […] Therefore DDAB-containing liposomes retain their cationic charge at physiological pH and are more likely to participate in non-specific interactions with plasma proteins under in vivo conditions. DDAB-containing liposomes are consequently cleared rapidly from circulation and are less suitable for drug or gene delivery to diseased tissues.
Zeta potential was measured using a ZETASIZER 2000 from Malver Instruments, Inc. (Southborough Mass.). […]

The conditions of data set [2]: reported values; cited from earlier work.

As for `CCCCCCCCCCCCCCCCCC[N+](C)(C)CCCCCCCCCCCCCCCCCC.[Br-]` [DDAB, dimethyldioctadecylammonium bromide, reference compound], the “pKa relative to the other lipids, inferred from zeta potential versus pH slope” value in data set [1] was “higher than for either HDSG or DSPEI”.

With `CCCCCCCCCCCCCCCCCC(=O)OCC(COP(=O)(O)OCCNCc1c[nH]cn1)OC(=O)CCCCCCCCCCCCCCCCC` (stereo not shown) [DSPEI, distearoylphosphatidylethanolamine imidazole], the “pKa relative to the other lipids, inferred from zeta potential versus pH slope” value in data set [1] is given as “lower pKa than HDSG”.

For `NCCc1c[nH]cn1` [histamine], the pKa – broadly, the negative logarithm of the acid dissociation constant – in data set [2] was 6.

For `c1c[nH]cn1` [imidazole], in data set [2], the pKa entry was “about 6.0”.
